From US20240391930A1, “SPIROCYCLIC BICYCLIC MODULATORS OF CHOLESTEROL BIOSYNTHESIS AND THEIR USE FOR PROMOTING REMYELINATION” (GENENTECH, INC., priority 2021, published 2024)

What was measured:
[1] = system: zymostenol accumulation in EpiSC-derived OPCs (EBP); experiment: GC/MS-based sterol profiling (zymostenol accumulation); type: cell-based; details: Mus musculus, 24 hours, 8 doses from 0.15 nM to 333 nM, read-out: Zymostenol GCMS EC50
Experimental: To assess effects of treatments on OPCs, all treatments were assayed in two or more independent platings of epiblast stem cell-derived OPCs (EpiSC). EpiSC-derived OPCs were obtained using in vitro differentiation protocols and culture conditions described previously (Najm et al, 2011, Nature Methods). OPCs were expanded and frozen down in aliquots. OPCs were thawed into growth conditions for at least one passage before use in further assays.
Sterols were monitored using a modified Folch wash protocol (Hubler et al, 2018, Nature). EpiSC-derived OPCs were plated at 100,000 cells per well in PO- and laminin-coated 96-well plates in N2B27 media without growth factors. After 24 hours, cells were rinsed with saline and plates were frozen. Cholesterol-d7 standard was then added to each well before drying under nitrogen stream and derivatization with 55 μl of bis(trimethylsilyl) trifluoroacetamide. After derivatization, 2 μl were analyzed by gas chromatography/mass spectrometry using an Agilent 5973 Network Mass Selective Detector equipped with a 6890 gas chromatograph system and a HP-5MS capillary column (30 m×0.25 mm×[…]). Samples were analyzed in full scan mode using electron impact ionization; ion fragment peaks were integrated to calculate sterol abundance, and quantitation was relative to cholesterol-d7. The following ion fragments were used to quantitate each metabolite: cholesterol-d7 (465), FF-Mas (482), cholesterol (368), zymostenol (458), zymosterol (456), Desmosterol (456, 343), 7-dehydrocholesterol (456, 325), lanosterol (393), lathosterol (458), 14-dehydrozymostenol (456, 351). […] All standards were obtained from Avanti Polar Lipids unless otherwise indicated. Calibration curves were generated by injecting varying concentrations of sterol standards and maintaining a fixed amount of cholesterol-D7. For normalized zymostenol accumulation results, the total amount of zymostenol measured after drug treatment was divided by the total amount of zymostenol accumulated after 24 hr treatment with 100 nM positive control reference.

[2] = biological target: T1, human emopamil binding protein and human 7-dehydrocholesterol reductase (hEBP-DHCR7) (Homo sapiens, UniProt Q15125); experiment: hEBP-DHCR7 radioligand filtration binding assay; details: membranes of HEK293 co-expressing hEBP and DHCR7; [3H] 2-thia-6-azaspiro[3.4]octane radioligand; 8 doses 0.06 to 5000 nM
T1 construct: expressed in transfected cells; host or cells: HEK 293 cells, transient transfection with 2 DNA constructs
T1 sequence (Q15125 whole entry): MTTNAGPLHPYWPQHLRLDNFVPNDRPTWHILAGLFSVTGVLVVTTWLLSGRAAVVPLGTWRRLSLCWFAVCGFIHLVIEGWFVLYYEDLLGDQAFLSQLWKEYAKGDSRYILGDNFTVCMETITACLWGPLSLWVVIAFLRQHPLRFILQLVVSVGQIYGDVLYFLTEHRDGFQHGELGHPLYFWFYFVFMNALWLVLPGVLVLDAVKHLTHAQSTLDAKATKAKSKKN
Experimental: Membrane Preparation: human emopamil binding protein and human 7-dehydrocholesterol reductase co-expressing cells were generated by transient transfecting host human embryonic kidney (HEK) 293 cells with 2 DNA constructs containing each protein's coding sequence. Cells were suspension cultured at 37° C. with 5% CO2 in […] 293 Expression Medium (Thermofisher). Whole cell membrane was prepared by harvesting the cell pellet, adding cold membrane buffer (50 mM Tris, pH7.5, lx Roche COMPLETE EDTA-free protease inhibitor cocktail) 10 times volume of the cell pellets weight, lysing cell pellet on ice by using Dounce homogenizer, spinning at 200 g 4° C. for 15 min, collecting supernatant and spinning again at 25000 g 4° C. for 50 min, transferring pellet to Dounce homogenizer, re-suspending pellet by homogenizing in membrane buffer on ice to reach ˜25 mg/mL, then keeping whole cell membrane aliquots at −80° C.
Compounds were prepared in a 96-well U bottom plate using an Echo550 machine and 10 mM compound DMSO stock solution, followed by an 8-dose 5-fold serial dilutions protocol with final testing compound concentration ranging from 0.06 to 5000 nM, with DMSO back fill to 100 nL/well and n=2. […] The UniFilter-96 GF/B plates were pre-treated by adding 50 µl/well of 0.3% (v/v) PEI to UniFilter-96 GF/B plates. The plates were sealed and incubated at 4° C. for 3 hrs. Then, the plates were washed with ice-cold assay buffer 3 times. The radioligand binding assay was prepared by adding assay buffer diluted hEBP-DHCR7 membrane at 66.7 μg/ml×150 l/well into the 96-well compound plate to reach 10 μg membrane per well. Then, the assay buffer diluted [3H]—((S)-6-(2-Methyl-3-(6-(trifluoromethyl)pyridin-3-yl)propyl)-2-thia-6-azaspiro[3.4]octane 2,2-dioxide or (R)-6-(2-Methyl-3-(6-(trifluoromethyl)pyridin-3-yl)propyl)-2-thia-6-azaspiro[3.4]octane 2,2-dioxide) was added at 25 nM×50 l/well. Following this, the plate was centrifuged at 1000 rpm for 30 secs. The plate was then sealed and agitated at 600 rpm at 22° C. for 5 min, and then incubated at 22° C. for 3 hrs. The incubation was stopped by transferring the binding solution to the pre-treated UniFilter-96 GF/B plate, vacuum filtrated, and then washed four times with ice-cold assay buffer. Following this, the plates were dried at 37° C. for 45 min. The plates were then sealed at the bottom. 40 µl/well of scintillation cocktail was added to the plates. A MicroBeta2 microplate counter was then used to read the plate and analyze the data. For reference and test compounds, the results are expressed as % Inhibition, using the normalization equation: N=100−100×(U−C2)/(C1−C2), where U is the unknown value, C1 is the average of high controls, and C2 is the average value of low controls. The IC50 was determined by fitting percentage of inhibition as a function of compound concentrations with Hill equation using XLfit. Results are expressed as hEBP-DHCR7 Ki (uM) in Table 4. Ki was calculated as described above; * indicates isolated isomer or isomers, but that the stereochemistry has not been assigned.

Compound | EC50 [1] | Ki [2]
CCn1nc(-c2cccnc2)cc1[C@H]1[C@@H]2C[C@@H](N3CCC4(C3)CS(=O)(=O)C4)C[C@@H]21 (single isomer, unassigned) [Compound 64*] | 0.044 µM | 0.203 µM
CCn1nc(-c2cncc(F)c2)cc1[C@H]1[C@@H]2C[C@@H](N3CCC4(CC3)CS(=O)(=O)C4)C[C@@H]21 (single isomer, unassigned) [Compound 66*] | 0.035 µM | 0.0264 µM
CCn1nc(-c2cncc(F)c2)cc1[C@H]1[C@@H]2C[C@H](N3CCC4(CC3)CS(=O)(=O)C4)C[C@@H]21 (single isomer, unassigned) [Compound 67*] | 0.037 µM | 0.171 µM
CC(C)(C)n1nc(C(F)(F)F)nc1[C@H]1[C@@H]2C[C@@H](N3CCC4(C3)CS(=O)(=O)C4)C[C@@H]21 (single isomer, unassigned) [Compound 77*] | 0.33 µM | 0.093 µM
CC(C)n1nc(-c2cccc(C(F)(F)F)n2)cc1[C@H]1[C@@H]2C[C@@H](N3CCC[C@@]4(CCS(=O)(=O)C4)C3)C[C@@H]21 (single isomer, unassigned) [Compound 80*] | 0.0043 µM | 
CC(C)n1nc(-c2cccc(C(F)(F)F)n2)cc1[C@H]1[C@@H]2C[C@@H](N3CCC[C@]4(CCS(=O)(=O)C4)C3)C[C@@H]21 (single isomer, unassigned) [Compound 81*] | 0.027 µM | 
CC(C)n1nc(-c2cccc(C(F)(F)F)n2)cc1[C@H]1[C@@H]2C[C@H](N3CCC[C@@]4(CCS(=O)(=O)C4)C3)C[C@@H]21 (single isomer, unassigned) [Compound 82*] | 0.0036 µM | 
O=S1(=O)CC[C@]2(CCCN([C@@H]3C[C@@H]4[C@H](C3)[C@H]4c3cc(C(F)(F)F)nn3CC(F)F)C2)C1 (single isomer, unassigned) [Compound 87*] | > 0.33 µM | 0.0946 µM
CC(C)n1nc(C(F)(F)F)cc1[C@H]1[C@@H]2C[C@@H](N3CCC[C@]4(CCS(=O)(=O)C4)C3)C[C@@H]21 (single isomer, unassigned) [Compound 93*] | 0.24 µM | 
CC(C)n1nc(C(F)(F)F)cc1[C@H]1[C@@H]2C[C@H](N3CCC[C@@]4(CCS(=O)(=O)C4)C3)C[C@@H]21 (single isomer, unassigned) [Compound 94*] | 0.00347 µM | 
CC(C)n1nc(C(F)(F)F)cc1[C@H]1[C@@H]2C[C@H](N3CCC[C@]4(CCS(=O)(=O)C4)C3)C[C@@H]21 (single isomer, unassigned) [Compound 95*] | 0.0583 µM | 
O=S1(=O)CC2(CCN([C@@H]3C[C@@H]4[C@H](C3)[C@H]4c3cc(C(F)(F)F)n(CC(F)F)n3)CC2)C1 (single isomer, unassigned) [Compound 96*] | 0.0379 µM | 0.438 µM
O=S1(=O)CC2(CCN([C@H]3C[C@@H]4[C@H](C3)[C@H]4c3cc(C(F)(F)F)n(CC(F)F)n3)CC2)C1 (single isomer, unassigned) [Compound 97] | 0.0221 µM | 0.00685 µM
CC(C)n1nc([C@H]2CC[C@@](O)(C(F)(F)F)CC2)cc1[C@H]1[C@@H]2C[C@@H](N3CCC4(C3)CS(=O)(=O)C4)C[C@@H]21 (single isomer, unassigned) [Compound 105*] | 0.11 µM | 0.554 µM
CC(C)n1nc(-c2cccc(C(F)(F)F)c2)nc1[C@H]1[C@@H]2C[C@H](N3CCC4(C3)CS(=O)(=O)C4)C[C@@H]21 [Compound 52, 6-((1R,3r,5S,6r)-6-(1-isopropyl-3-(3-(trifluoromethyl)phenyl)-1H-1,2,4-triazol-5-yl)bicyclo[3.1.0]hexan-3-yl)-2-thia-6-azaspiro[3.4]octane 2,2-dioxide] | 0.0024 µM | 0.0103 µM
CCn1nc(-c2ccccn2)cc1[C@H]1[C@@H]2C[C@@H](N3CCC4(C3)CS(=O)(=O)C4)C[C@@H]21 [Compound 72, 6-((1R,3s,5S,6r)-6-(1-Ethyl-3-(pyridin-2-yl)-1H-pyrazol-5-yl)bicyclo[3.1.0]hexan-3-yl)-2-thia-6-azaspiro[3.4]octane 2,2-dioxide] | 0.047 µM | 0.303 µM
CC(C)n1nc(-c2cccc(C(F)(F)F)c2)nc1[C@H]1[C@@H]2C[C@@H](N3CCC4(CC3)CS(=O)(=O)C4)C[C@@H]21 [Compound 79, 7-((1R,3s,5S,6r)-6-(1-isopropyl-3-(3-(trifluoromethyl)phenyl)-1H-1,2,4-triazol-5-yl)bicyclo[3.1.0]hexan-3-yl)-2-thia-7-azaspiro[3.5]nonane 2,2-dioxide] | 0.003 µM | 

The remaining compounds from weak to strong by EC50 [1], led by results:

EC50 [1] | Ki [2] | Compound
0.27 µM | 0.128 µM | O=S1(=O)CC[C@]2(CCCN([C@H]3C[C@@H]4[C@H](C3)[C@H]4c3cc(C(F)(F)F)nn3CC(F)F)C2)C1 (single isomer, unassigned) [Compound 89*]
0.053 µM | 0.0336 µM | CC(C)(C)n1nc(C(F)(F)F)nc1[C@H]1[C@@H]2C[C@H](N3CCC4(C3)CS(=O)(=O)C4)C[C@@H]21 (single isomer, unassigned) [Compound 78*]
0.041 µM |  | CC(C)n1nc(-c2cccc(C(F)(F)F)n2)cc1[C@H]1[C@@H]2C[C@H](N3CCC[C@]4(CCS(=O)(=O)C4)C3)C[C@@H]21 (single isomer, unassigned) [Compound 83*]
0.024 µM | 0.0163 µM | O=S1(=O)CC2(CCN([C@H]3C[C@@H]4[C@H](C3)[C@H]4c3cc(C(F)(F)F)nn3CC(F)F)C2)C1 (single isomer, unassigned) [Compound 91*]
0.0146 µM | 0.0131 µM | CC(C)n1nc([C@H]2CC[C@@H](C(F)(F)F)CC2)cc1[C@H]1[C@@H]2C[C@@H](N3CCC4(C3)CS(=O)(=O)C4)C[C@@H]21 (single isomer, unassigned) [Compound 106]
0.013 µM | 0.0212 µM | O=S1(=O)CC[C@@]2(CCCN([C@@H]3C[C@@H]4[C@H](C3)[C@H]4c3cc(C(F)(F)F)nn3CC(F)F)C2)C1 (single isomer, unassigned) [Compound 86*]
0.0077 µM | 0.0189 µM | O=S1(=O)CC[C@@]2(CCCN([C@H]3C[C@@H]4[C@H](C3)[C@H]4c3cc(C(F)(F)F)nn3CC(F)F)C2)C1 (single isomer, unassigned) [Compound 88*]
0.0022 µM | 0.0118 µM | CC(C)(C)n1nc(-c2cccc(C(F)(F)F)c2)nc1[C@H]1[C@@H]2C[C@H](N3CCC4(C3)CS(=O)(=O)C4)C[C@@H]21 (single isomer, unassigned) [Compound 76]
